Test results published in patent publication US20240124417A1, “COMPOUNDS USEFUL AS IMMUNOMODULATORS” (Bristol-Myers Squibb Company, priority 2019, published 2024).

Biological target: T1, PD-1/PD-L1 (Homo sapiens, UniProt Q9NZQ7)
T1 construct: TVMV protease site linker (C); made in house; host or cells: HEK293T cells
Assay: PD-1/PD-L1 Homogenous Time-Resolved Fluorescence (HTRF) binding assay
Details: PD-L1-His 10 nM, PD-1-Ig 20 nM
From the text: The ability of the compounds of the invention to bind to PD-L1 was investigated using a PD-1/PD-L1 Homogenous Time-Resolved Fluorescence (HTRF) binding assay.
Homogenous Time-Resolved Fluorescence (HTRF) binding assay.
The interaction of PD-1 and PD-L1 can be assessed using soluble, purified preparations of the extracellular domains of the two proteins. The PD-1 and PD-L1 protein extracellular domains were expressed as fusion proteins with detection tags, for PD-1, the tag was the Fc portion of Immunoglobulin (PD-1-Ig) and for PD-L1 it was the 6 histidine motif (PD-L1-His). All binding studies were performed in an HTRF assay buffer consisting of dPBS supplemented with 0.1% […] bovine serum albumin and 0.05% (v/v) Tween-20. For the h/PD-L1-His binding assay, inhibitors were pre-incubated with PD-L1-His (10 nM final) for 15 m in 4 μl of assay buffer, followed by addition of PD-1-Ig (20 nM final) in 1 μl of assay buffer and further incubation for 15 m. HTRF detection was achieved using europium crypate-labeled anti-Ig (1 nM final) and allophycocyanin (APC) labeled anti-His (20 nM final). Antibodies were diluted in HTRF detection buffer and 5 μl was dispensed on top of the binding reaction. […] Additional binding assays were established between the human proteins PD-1-Ig/PD-L2-His (20 & 5 nM, respectively) and CD80-His/PD-L1-Ig (100 & 10 nM, respectively). […]

T1 sequence (Q9NZQ7 18-239): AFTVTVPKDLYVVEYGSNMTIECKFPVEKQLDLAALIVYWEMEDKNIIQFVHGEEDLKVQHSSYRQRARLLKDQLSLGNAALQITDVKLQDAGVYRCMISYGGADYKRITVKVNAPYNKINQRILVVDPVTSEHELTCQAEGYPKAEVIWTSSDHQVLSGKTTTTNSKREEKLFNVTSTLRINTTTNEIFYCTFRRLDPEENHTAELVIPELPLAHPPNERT

Structure (SMILES)	IC50 [nM]
CC(=O)NC1CCN(CCCOc2cccc(-c3cccc(COc4cc(OCc5cncc(C#N)c5)c(CN5CCCC(c6nnc[nH]6)C5)cc4Cl)c3C)c2C)CC1 (stereo not shown) [Example 1039, N-(1-(3-((3′-((4-((3-(4H-1,2,4-Triazol-3-yl)piperidin-1-yl)methyl)-2-chloro-5-((5-cyano-pyridin-3-yl)methoxy)phenoxy)methyl)-2,2′-dimethyl-[1,1′-biphenyl]-3-yl)oxy)propyl)-piperidin-4-yl)acetamide]	2.7
Cc1c(COc2cc(OCc3cncc(C#N)c3)c(CN3CCc4[nH]ncc4C3)cc2Cl)cccc1-c1cccc(OCCCN2CC[C@@H](O)C2)c1C [Example 2512, (R)-5-((4-chloro-5-((3′-(3-(3-hydroxypyrrolidin-1-yl)propoxy)-2,2′-dimethyl-[1,1′-biphenyl]-3-yl)methoxy)-2-((1,4,6,7-tetrahydro-5H-pyrazolo[4,3-c]pyridin-5-yl)methyl)phenoxy)methyl)nicotinonitrile]	3.9
Cc1c(COc2cc(OCc3cncc(C#N)c3)c(CNCc3ncc(-c4ccccc4)o3)cc2Cl)cccc1-c1cccc(OCCCN2CC[C@@H](O)C2)c1C [Example 2566, (R)-5-((4-chloro-5-((3′-(3-(3-hydroxypyrrolidin-1-yl)propoxy)-2,2′-dimethyl-[1,1′-biphenyl]-3-yl)methoxy)-2-((((5-phenyloxazol-2-yl)methyl)amino)methyl)phenoxy)methyl)nicotinonitrile]	48.6
CC(=O)NC1CCN(CCCOc2cccc(-c3cccc(COc4cc(OCc5cncc(C#N)c5)c(CN5CCCCC5c5ncc[nH]5)cc4Cl)c3C)c2C)CC1 (stereo not shown) [Example 1045, N-(1-(3-((3′-((4-((2-(1H-Imidazol-2-yl)piperidin-1-yl)methyl)-2-chloro-5-((5-cyano-pyridin-3-yl)methoxy)phenoxy)methyl)-2,2′-dimethyl-[1,1′-biphenyl]-3-yl)oxy)propyl)-piperidin-4-yl)acetamide]	3.8
CC(=O)NC1CCN(CCCOc2cccc(-c3cccc(COc4cc(OCc5cncc(C#N)c5)c(CN5CCCCC5c5cnn(C)c5)cc4Cl)c3C)c2C)CC1 (stereo not shown) [Example 1054, N-(1-(3-((3′-((2-Chloro-5-((5-cyanopyridin-3-yl)methoxy)-4-((2-(1-methyl-1H-pyrazol-4-yl)piperidin-1-yl)methyl)phenoxy)methyl)-2,2′-dimethyl-[1,1′-biphenyl]-3-yl)oxy)-propyl)piperidin-4-yl)acetamide]	3
Cc1c(COc2cc(OCc3cncc(C#N)c3)c(CN(C)CCc3nc4cc(Cl)ccc4[nH]3)cc2Cl)cccc1-c1cccc(OCCCN2CC[C@@H](O)C2)c1C [Example 2517, (R)-5-((4-chloro-2-(((2-(5-chloro-1H-benzo[d]imidazol-2-yl)ethyl)(methyl)amino)methyl)-5-((3′-(3-(3-hydroxypyrrolidin-1-yl)propoxy)-2,2′-dimethyl-[1,1′-biphenyl]-3-yl)methoxy)phenoxy)methyl)nicotinonitrile]	12.4
Cc1c(COc2cc(OCc3cncc(C#N)c3)c(CN(C)Cc3cc4ccccn4n3)cc2Cl)cccc1-c1cccc(OCCCN2CC[C@@H](O)C2)c1C [Example 2542, (R)-5-((4-chloro-5-((3′-(3-(3-hydroxypyrrolidin-1-yl)propoxy)-2,2′-dimethyl-[1,1′-biphenyl]-3-yl)methoxy)-2-((methyl(pyrazolo[1,5-a]pyridin-2-ylmethyl)amino)methyl)phenoxy)methyl)nicotinonitrile]	3.9
Cc1c(COc2cc(OCc3cncc(C#N)c3)c(CN(C)CCc3nc4ccccc4[nH]3)cc2Cl)cccc1-c1cccc(OCCCN2CC[C@@H](O)C2)c1C [Example 2508, (R)-5-((2-(((2-(1H-benzo[d]imidazol-2-yl)ethyl)(methyl)amino)methyl)-4-chloro-5-((3′-(3-(3-hydroxypyrrolidin-1-yl)propoxy)-2,2′-dimethyl-[1,1′-biphenyl]-3-yl)methoxy)phenoxy)methyl)nicotinonitrile]	6.2

Results, then the molecule that gave them:

IC50 [nM]	Structure (SMILES)
2.8	Cc1c(COc2cc(OCc3cncc(C#N)c3)c(CN3CCCCC3c3cn[nH]c3)cc2Cl)cccc1-c1cccc(OCC2CCCN(C)C2)c1Cl (stereo not shown) [Example 1020, 5-((2-((2-(1H-Pyrazol-4-yl)piperidin-1-yl)methyl)-4-chloro-5-((2′-chloro-2-methyl-3′-((1-methylpiperidin-3-yl)methoxy)-[1,1′-biphenyl]-3-yl)methoxy)phenoxy)methyl)-nicotinonitrile]
2.9	Cc1c(COc2cc(OCc3cncc(C#N)c3)c(CNCCc3nnnn3C)cc2Cl)cccc1-c1cccc(OCCCN2CC[C@@H](O)C2)c1C [Example 1014, (R)-5-((4-Chloro-5-((3′-(3-(3-hydroxypyrrolidin-1-yl)propoxy)-2,2′-dimethyl-[1,1′-biphenyl]-3-yl)methoxy)-2-(((2-(1-methyl-1H-tetrazol-5-yl)ethyl)amino)methyl)-phenoxy)methyl)nicotinonitrile]
2.8	Cc1c(COc2cc(OCc3cncc(C#N)c3)c(CNCc3nccs3)cc2Cl)cccc1-c1cccc(OCC2CCCN(C)C2)c1Cl (stereo not shown) [Example 2585, 5-((4-chloro-5-((2′-chloro-2-methyl-3′-((1-methylpiperidin-3-yl)methoxy)-[1,1′-biphenyl]-3-yl)methoxy)-2-(((thiazol-2-ylmethyl)amino)methyl)phenoxy)methyl)nicotinonitrile]
1	Cc1c(COc2cc(OCc3cncc(C#N)c3)c(CNCCc3ncn[nH]3)cc2Cl)cccc1-c1cccc(OCCCN2CC[C@@H](O)C2)c1C [Example 2519, (R)-5-((2-(((2-(1H-1,2,4-triazol-5-yl)ethyl)amino)methyl)-4-chloro-5-((3′-(3-(3-hydroxypyrrolidin-1-yl)propoxy)-2,2′-dimethyl-[1,1′-biphenyl]-3-yl)methoxy)phenoxy)methyl)nicotinonitrile]
1.9	Cc1c(COc2cc(OCc3cnccn3)c(CNCc3c[nH]cn3)cc2Cl)cccc1-c1cccc(OCC2CCCN(C)C2)c1Cl (stereo not shown) [Example 2060, N-((1H-imidazol-4-yl)methyl)-1-(5-chloro-4-((2′-chloro-2-methyl-3′-((1-methylpiperidin-3-yl)methoxy)-[1,1′-biphenyl]-3-yl)methoxy)-2-(pyrazin-2-ylmethoxy)phenyl)methanamine]
0.6	Cc1c(COc2cc(OCc3cncc(C#N)c3)c(CN(C)Cc3c[nH]cn3)cc2Cl)cccc1-c1cccc(OCCCN2CC[C@@H](O)C2)c1C [Example 2007, (R)-5-((2-((((1H-imidazol-4-yl)methyl)(methyl)amino)methyl)-4-chloro-5-((3′-(3-(3-hydroxypyrrolidin-1-yl)propoxy)-2,2′-dimethyl-[1,1′-biphenyl]-3-yl)methoxy)phenoxy)methyl)nicotinonitrile]
75.9	Cc1c(COc2cc(OCc3cncc(C#N)c3)c(CNCc3ncccn3)cc2Cl)cccc1-c1cccc(OCC2CCCN(CCC(F)(F)F)C2)c1Cl (stereo not shown) [Example 2066, 5-((4-chloro-5-((2′-chloro-2-methyl-3′-((1-(3,3,3-trifluoropropyl)piperidin-3-yl)methoxy)-[1,1′-biphenyl]-3-yl)methoxy)-2-(((pyrimidin-2-ylmethyl)amino)methyl)phenoxy)methyl)nicotinonitrile]
4.2	Cc1c(COc2cc(OCc3cncc(C#N)c3)c(CNCc3cc(C4CC4)on3)cc2Cl)cccc1-c1cccc(OCC2CCCN(C)C2)c1Cl (stereo not shown) [Example 2607, 5-((4-chloro-5-((2′-chloro-2-methyl-3′-((1-methylpiperidin-3-yl)methoxy)-[1,1′-biphenyl]-3-yl)methoxy)-2-((((5-cyclopropylisoxazol-3-yl)methyl)amino)methyl)phenoxy)methyl)nicotinonitrile]
89.6	Cc1c(COc2cc(OCc3cncc(C#N)c3)c(CNCc3cn[nH]n3)cc2Cl)cccc1-c1cccc(OCC2CCCN(CCC(F)(F)F)C2)c1Cl (stereo not shown) [Example 2068, 5-((2-((((2H-1,2,3-triazol-4-yl)methyl)amino)methyl)-4-chloro-5-((2′-chloro-2-methyl-3′-((1-(3,3,3-trifluoropropyl)piperidin-3-yl)methoxy)-[1,1′-biphenyl]-3-yl)methoxy)phenoxy)methyl)nicotinonitrile]
2.1	Cc1c(COc2cc(OCc3cncc(C#N)c3)c(CNCc3ncn[nH]3)cc2Cl)cccc1-c1cccc(OCCCN2CCC(O)(CO)CC2)c1Cl [Example 2009, 5-((2-((((1H-1,2,4-triazol-5-yl)methyl)amino)methyl)-4-chloro-5-((2′-chloro-3′-(3-(4-hydroxy-4-(hydroxymethyl)piperidin-1-yl)propoxy)-2-methyl-[1,1′-biphenyl]-3-yl)methoxy)phenoxy)methyl)nicotinonitrile]
0.7	Cc1c(COc2cc(OCc3cncc(C#N)c3)c(CNCc3cocn3)cc2Cl)cccc1-c1cccc(OCCCN2CC[C@@H](O)C2)c1C [Example 2539, (R)-5-((4-chloro-5-((3′-(3-(3-hydroxypyrrolidin-1-yl)propoxy)-2,2′-dimethyl-[1,1′-biphenyl]-3-yl)methoxy)-2-(((oxazol-4-ylmethyl)amino)methyl)phenoxy)methyl)nicotinonitrile]
